Test results as given in the OligoGym collection.
Oligonucleotides are written 5' to 3', each unit as a sugar letter and its base; * is a phosphorothioate linkage, no mark a phosphodiester; rarer units and linkages stand in square brackets, end groups in braces. Plain capitals give the bases only. Oligonucleotides are given in HELM: sugar(base)linkage, 5' to 3'; d 2'-deoxyribose, r ribose, m 2'-O-methylribose, p phosphate. ss, as = sense and antisense strand; d = 2'-deoxy (DNA); r = 2'-OH (RNA)

These substances were tested against UBE2L3 (assay: reporter assay of Huesken 2005). Details: siRNA.
Further: test concentration or dose not given here.

Point of comparison: “sense rCrArGrCrArGrArGrUrArCrCrCrArUrUrCrArAdTdT / antisense rUrUrGrArArUrGrGrGrUrArCrUrCrUrGrCrUrGdGdA”, normalised inhibition (eCFP-eYFP dual reporter) 90%. Against it:
- sense rArArArCrArArArGrArUrCrUrArUrCrArCrCrCdTdT / antisense rGrGrGrUrGrArUrArGrArUrCrUrUrUrGrUrUrUdTdA — lower, 50.1%
- sense rArArCrCrGrArCrCrArArGrUrArArUrCrCrArGdTdT / antisense rCrUrGrGrArUrUrArCrUrUrGrGrUrCrGrGrUrUdTdT — lower, 66.6%
- sense rArArCrUrGrGrArArGrCrCrArGrCrArArCrCrAdTdT / antisense rUrGrGrUrUrGrCrUrGrGrCrUrUrCrCrArGrUrUdTdT — lower, 71.8%
- sense rArArGrCrCrArGrCrArArCrCrArArArArCrCrGdTdT / antisense rCrGrGrUrUrUrUrGrGrUrUrGrCrUrGrGrCrUrUdCdC — lower, 41.7%
- sense rArCrArUrCrGrArCrGrArArArArGrGrGrGrCrAdTdT / antisense rUrGrCrCrCrCrUrUrUrUrCrGrUrCrGrArUrGrUdTdT — lower, 64.5%
- sense rArCrCrArArGrUrArArUrCrCrArGrUrCrCrCrUdTdT / antisense rArGrGrGrArCrUrGrGrArUrUrArCrUrUrGrGrUdCdG — lower, 87.3%
- sense rArGrArUrCrUrArUrCrArCrCrCrArArArCrArUdTdT / antisense rArUrGrUrUrUrGrGrGrUrGrArUrArGrArUrCrUdTdT — lower, 73.1%
- sense rArGrCrArCrCrCrGrCrUrUrCrGrGrGrCrUrGrAdTdT / antisense rUrCrArGrCrCrCrGrArArGrCrGrGrGrUrGrCrUdCdA — lower, 37.6%
- sense rArGrCrCrUrGrArGrCrArCrCrCrGrCrUrUrCrGdTdT / antisense rCrGrArArGrCrGrGrGrUrGrCrUrCrArGrGrCrUdGdG — lower, 46.3%
- sense rArUrCrGrArCrGrArArArArGrGrGrGrCrArGrGdTdT / antisense rCrCrUrGrCrCrCrCrUrUrUrUrCrGrUrCrGrArUdGdT — lower, 32%
- sense rArUrUrGrArCrUrUrGrGrCrArArGrGrGrCrUrUdTdT / antisense rArArGrCrCrCrUrUrGrCrCrArArGrUrCrArArUdAdA — lower, 58.7%
- sense rArUrUrUrArArArArCrArArArGrArUrCrUrArUdTdT / antisense rArUrArGrArUrCrUrUrUrGrUrUrUrUrArArArUdGdT — lower, 65.5%
- sense rCrArArArArCrCrGrArCrCrArArGrUrArArUrCdTdT / antisense rGrArUrUrArCrUrUrGrGrUrCrGrGrUrUrUrUrGdGdT — lower, 56.2%
- sense rCrArArArGrArUrCrUrArUrCrArCrCrCrArArAdTdT / antisense rUrUrUrGrGrGrUrGrArUrArGrArUrCrUrUrUrGdTdT — lower, 82.8%
- sense rCrArArCrCrArArArArCrCrGrArCrCrArArGrUdTdT / antisense rArCrUrUrGrGrUrCrGrGrUrUrUrUrGrGrUrUrGdCdT — lower, 87%
- sense rCrArCrCrCrGrCrUrUrCrGrGrGrCrUrGrArCrCdTdT / antisense rGrGrUrCrArGrCrCrCrGrArArGrCrGrGrGrUrGdCdT — lower, 60%
- sense rCrArGrCrArArCrCrArArArArCrCrGrArCrCrAdTdT / antisense rUrGrGrUrCrGrGrUrUrUrUrGrGrUrUrGrCrUrGdGdC — lower, 60%
- sense rCrArGrCrCrUrGrArGrCrArCrCrCrGrCrUrUrCdTdT / antisense rGrArArGrCrGrGrGrUrGrCrUrCrArGrGrCrUrGdGdG — lower, 37.1%
- sense rCrArGrGrUrUrGrArUrGrArArGrCrUrArArUrUdTdT / antisense rArArUrUrArGrCrUrUrCrArUrCrArArCrCrUrGdGdA — higher, 96.7%
- sense rCrArUrArGrCrArCrUrGrGrUrGrArArUrGrArCdTdT / antisense rGrUrCrArUrUrCrArCrCrArGrUrGrCrUrArUrGdAdG — lower, 80.9%
- sense rCrCrArArArArCrCrGrArCrCrArArGrUrArArUdTdT / antisense rArUrUrArCrUrUrGrGrUrCrGrGrUrUrUrUrGrGdTdT — lower, 84.6%
- sense rCrCrArArArCrArUrCrGrArCrGrArArArArGrGdTdT / antisense rCrCrUrUrUrUrCrGrUrCrGrArUrGrUrUrUrGrGdGdT — lower, 59.4%
- sense rCrCrArArGrUrArArUrCrCrArGrUrCrCrCrUrCdTdT / antisense rGrArGrGrGrArCrUrGrGrArUrUrArCrUrUrGrGdTdC — lower, 61.4%
- sense rCrCrArGrUrArArUrUrArGrUrGrCrCrGrArArAdTdT / antisense rUrUrUrCrGrGrCrArCrUrArArUrUrArCrUrGrGdCdA — lower, 82.8%
- sense rCrCrCrGrCrUrUrCrGrGrGrCrUrGrArCrCrUrAdTdT / antisense rUrArGrGrUrCrArGrCrCrCrGrArArGrCrGrGrGdTdG — lower, 62.3%
- sense rCrCrGrArArGrArUrCrArCrArUrUrUrArArArAdTdT / antisense rUrUrUrUrArArArUrGrUrGrArUrCrUrUrCrGrGdTdG — lower, 83.4%
- sense rCrCrGrUrArArCrArUrCrCrArGrGrUrUrGrArUdTdT / antisense rArUrCrArArCrCrUrGrGrArUrGrUrUrArCrGrGdAdA — lower, 61.4%
- sense rCrCrUrArGrCrUrGrArArGrArArUrArCrUrCrUdTdT / antisense rArGrArGrUrArUrUrCrUrUrCrArGrCrUrArGrGdTdC — lower, 63.9%
- sense rCrCrUrCrCrArUrArUrGrArUrArArGrGrGrArGdTdT / antisense rCrUrCrCrCrUrUrArUrCrArUrArUrGrGrArGrGdGdT — lower, 81.2%
- sense rCrGrGrGrCrUrGrArCrCrUrArGrCrUrGrArArGdTdT / antisense rCrUrUrCrArGrCrUrArGrGrUrCrArGrCrCrCrGdAdA — lower, 61.3%
- sense rCrUrCrArUrArGrCrArCrUrGrGrUrGrArArUrGdTdT / antisense rCrArUrUrCrArCrCrArGrUrGrCrUrArUrGrArGdGdG — lower, 77.1%
- sense rCrUrGrArGrCrArCrCrCrGrCrUrUrCrGrGrGrCdTdT / antisense rGrCrCrCrGrArArGrCrGrGrGrUrGrCrUrCrArGdGdC — lower, 51.7%
- sense rCrUrGrUrCrUrGrCrCrArGrUrArArUrUrArGrUdTdT / antisense rArCrUrArArUrUrArCrUrGrGrCrArGrArCrArGdAdC — lower, 52.5%
- sense rGrArCrCrUrArGrCrUrGrArArGrArArUrArCrUdTdT / antisense rArGrUrArUrUrCrUrUrCrArGrCrUrArGrGrUrCdAdG — higher, 102%

The substances below were run against CDC34 (assay: reporter assay of Huesken 2005). Details: siRNA.

“RNA1{r(U)p.r(G)p.r(G)p.r(C)p.r(C)p.r(G)p.r(A)p.r(G)p.r(U)p.r(A)p.r(C)p.r(U)p.r(G)p.r(C)p.r(G)p.r(U)p.r(G)p.r(A)p.r(A)p.d(T)p.d(T)}|RNA2{r(U)p.r(U)p.r(C)p.r(A)p.r(C)p.r(G)p.r(C)p.r(A)p.r(G)p.r(U)p.r(A)p.r(C)p.r(U)p.r(C)p.r(G)p.r(G)p.r(C)p.r(C)p.r(A)p.d(G)p.d(C)}$$$RNA1{StrandType:ss}|RNA2{StrandType:as}$” gave a normalised inhibition (eCFP-eYFP dual reporter) of 65.2%.
